Experimental data from article PMC6411960, “Discovery of Novel Androgen Receptor Ligands by Structure-based Virtual Screening and Bioassays” (Genomics, Proteomics & Bioinformatics, 2019).
Where two headings read alike, the source gives them in different places.

Experiments:
AR-LBD = target: T1, AR-LBD (Homo sapiens, UniProt P10275); test: PolarScreen AR competitor assay (fluorescence polarization); format: binding; conditions: competition with Flu-AR ligand; for EC50: gradient concentrations 0.1–100 µM, read-out: Binding EC50; for IC50: 0.1–100 µM, read-out: IC50, binding to AR-LBD
T1 sequence (P10275 669-900 limits assumed): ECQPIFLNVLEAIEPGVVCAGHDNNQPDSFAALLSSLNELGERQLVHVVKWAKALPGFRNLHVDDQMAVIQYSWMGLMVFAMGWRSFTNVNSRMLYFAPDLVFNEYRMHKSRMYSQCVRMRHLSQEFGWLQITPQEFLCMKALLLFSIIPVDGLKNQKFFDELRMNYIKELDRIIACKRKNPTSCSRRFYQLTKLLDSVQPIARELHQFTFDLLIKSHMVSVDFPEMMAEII

LNCaP cells = test: MTT cell proliferation assay, LNCaP; format: cell-based; conditions: for inhibition at 10 µM: Homo sapiens, LNCaP cell line, compound at 10 μM; for decrease in cell viability / change in cell viability: 30 µM, versus cells not treated; for change in cell viability: P = 0.0001; for effect on growth of LNCaP cells: various concentrations
Method: 3-(4,5-Dimethythiazol-2-yl)-2,5-diphenyl-2-H-tetrazolium bromid (MTT) colorimetric assay was utilized to evaluate cell proliferation, which can reflect the bioactivity and cytotoxicity of test compounds at cellular level. […] After incubation at 37 °C for 24 h, cells were treated with serial dilutions of indicated compounds (and 1 nM DHT for LNCaP culture) and incubated for another 3 days. Afterward, 10 μl of 5 mg/ml MTT solution was added into each well and further incubated for another 4 h. Then, 100 μl of triplex 10% SDS-0.1% HCl-PBS solutions were added to dissolve the formazan deposited on the bottom of the plates and the plates were then further retained in incubator overnight. The absorbance at 570 nm was measured with the reference wavelength at 650 nm with a spectrophotometer (Bioteck Eon, Winooski, VT).

C4-2 cells = test: MTT cell proliferation assay, C4-2; format: cell-based; conditions: for reduction of cell viability: C4-2, 30 µM, versus cells without treatment
From the text: We further tested C4-2, an androgen-independent AR^+ PCa cell line, which is more malignant than LNCaP. […] Given inhibitory effect was only observed at higher concentrations, it remains to be addressed whether the inhibition is attributed to AR blocking or the inherent toxicities of the tested compounds. We thus tested these compounds on DU145, an AR^− PCa cell line.
3-(4,5-Dimethythiazol-2-yl)-2,5-diphenyl-2-H-tetrazolium bromid (MTT) colorimetric assay was utilized to evaluate cell proliferation, which can reflect the bioactivity and cytotoxicity of test compounds at cellular level. PCa cells were cultured in 1640 RPMI media containing 5% charcoal-stripped serum (CSS) at a density of 5000 cells per well for LNCaP, 1000 cells per well for C4-2, and 2000 cells per well for DU145 in 96-well plates. After incubation at 37 °C for 24 h, cells were treated with serial dilutions of indicated compounds (and 1 nM DHT for LNCaP culture) and incubated for another 3 days. Afterward, 10 μl of 5 mg/ml MTT solution was added into each well and further incubated for another 4 h. Then, 100 μl of triplex 10% SDS-0.1% HCl-PBS solutions were added to dissolve the formazan deposited on the bottom of the plates and the plates were then further retained in incubator overnight. The absorbance at 570 nm was measured with the reference wavelength at 650 nm with a spectrophotometer (Bioteck Eon, Winooski, VT).

[1] = system: AR transcriptional activity; test: LNCaP-ARR2PB-eGFP transcriptional activity assay, antagonist mode (with DHT); format: cell-based; conditions: for effect on eGFP expression: 10 µM compound in the presence of 1 nM DHT, versus DHT control; for EC50: read-out: Antagonistic EC50
[2] = system: AR transcriptional activity; test: LNCaP-ARR2PB-eGFP transcriptional activity assay, agonist mode (without DHT); format: cell-based
Method: 1 nM DHT was added for background fluorescence. In addition, cells receiving equal volume of DMSO solution with (dark gray bar) or without (light gray bar) DHT served as controls too. […] C. […] The test concentrations range from 0.001 nM to 10 µM. DHT served as the positive control. Assays were performed in triplicate. Multiple group comparisons were analyzed with 1-way ANOVA (**, P < 0.05 were considered statistically significant).
The agonistic effects of the screened compounds were analyzed by stimulating the cell growth of LNCaP-ARR2PB-eGFP without prior addition of DHT. Cells were incubated with various concentrations of HBP1-3, HBP1-17, HBP1-38, and HBP1-51, respectively, ranging from 1 × 10^−3 nM to 1 × 10^4 nM (Figure 4C).
A cell line of LNCaP that stably expresses eGFP under the regulation of an androgen response element was generated to investigate the agonist/antagonist activity of the selected compounds as previously described, [34]. […] For lentiviral infection, LNCaP cells were plated and proliferated to a confluence of 60% before adding 5 ml of the collected lentivirus. Medium was refreshed 16 h later and cells were incubated for another two days. GFP expression in the transfected cell was examined with a fluorescent microscope. Subsequently, the infected cells were cultured in complete medium containing 1 μg/ml puromycin. This procedure was repeated for three cycles in the next subculture process to adequately eliminate the non-transfected clones. Cells surviving the screening process were AR-regulated eGFP-expressing LNCaP cells (LNCaP-ARR2PB-eGFP) and were cultured for subsequent antagonist/agonist assay.

[3] = without DHT, 1 × 10^−3 nM to 1 × 10^4 nM
[4] = LNCaP-ARR2PB-eGFP, in the presence of DHT

Structure (SMILES) | EC50 (AR-LBD) [µM] | inhibition at 10 µM (LNCaP cells) [%] | reduction of cell viability (C4-2 cells) [%] | effect on eGFP expression [1] | agonistic effect on eGFP expression [2, 3] | effect on growth of LNCaP cells (LNCaP cells; LNCaP) | also measured
O=C(CC1C(=O)NCCN1Cc1cccc2ccccc12)NCCn1ccc2ccccc21 (centres unmarked) [HBP1-17] | > 30 | 7.8 ± 4.1 | 10 | did not show obvious effect on eGFP expression | did not cause notable change |  | decrease in cell viability (LNCaP cells; LNCaP): ≥ 20%
C[C@]12CCC(=O)C[C@@H]1CC[C@@H]1[C@@H]2CC[C@]2(C)[C@@H](O)CC[C@@H]12 [DHT, dihydrotestosterone, reference compound] |  |  |  |  |  |  | agonistic effect on eGFP expression [2]: upregulated eGFP expression in a dose-dependent manner
Nc1ccc2c(c1)C(=O)N(c1cccc3ccccc13)C2=O [HBP1-3] | > 30 | 7.8 ± 4.4 | 12 | did not show obvious effect on eGFP expression | did not cause notable change |  | change in cell viability (LNCaP cells; LNCaP): significant decrease in cell viability
CNC(=O)c1ccc(N2C(=S)N(c3ccc(C#N)c(C(F)(F)F)c3)C(=O)C2(C)C)cc1F [Enz, enzalutamide, reference compound] |  |  |  |  |  | reduced the growth of LNCaP cells in a dose-dependent manner | 
Cc1cc(O)nc2ccc(S(=O)(=O)Nc3ccc(O)cc3)cc12 [HBP1-51] | 3.96 |  |  | promoted eGFP expression | dose-dependent upregulation of GFP expression | did not show apparent inhibition tendency | IC50 (AR-LBD): 3.96 µM; maximum increase of cell viability (C4-2 cells; C4-2, all tested concentrations, versus untreated cells, not significant (P = 0.14)): below 20%; Antagonistic EC50 [1, 4]: Agonist
COc1ccc(CC2(CCC(=O)NCCn3ccc4ccccc43)CCC(=O)N2)c2ccccc12 (centres unmarked) [HBP1-38] | > 30 | 18.6 ± 4.7 | ~40 | promoted eGFP expression | did not cause notable change |  | inhibitory effect on LNCaP growth (LNCaP cells; LNCaP, 10 µM): inhibitory effect comparable to Bic; decrease in cell viability (LNCaP cells; LNCaP): ≥ 40%
Cc1ccccc1NCC(=O)N/N=C/c1ccc(-c2ccc(Cl)c(Cl)c2)o1 [HBP1-58] | 4.92 | 2.2 ± 0.8 |  | significantly reduced eGFP expression |  |  | IC50 (AR-LBD): 4.92 µM; change in cell viability (LNCaP cells; LNCaP): significant decrease in cell viability; EC50 [1, 4]: 3.25 ± 0.43 µM; IC50 ([1]; LNCaP-ARR2PB-eGFP, with DHT, read-out: IC50, antagonistic effect on AR transcriptional activity): 3.25 ± 0.43 µM
CC(O)(CS(=O)(=O)c1ccc(F)cc1)C(=O)Nc1ccc(C#N)c(C(F)(F)F)c1 (centres unmarked) [Bic, bicalutamide, reference compound] |  | 16.5 ± 1 |  |  |  | reduced the growth of LNCaP cells in a dose-dependent manner | EC50 [1]: 0.69 ± 0.085 µM
